Assays:
[1] = test system: ERα Negative MCF-10A cells; experiment: Trypan Blue exclusion cell death assay, MCF-10A; type: cell-based; settings: 75 nM, 24 hours
Description: (§1) TRYPAN BLUE: For decades, viable cells have been measured by their ability to exclude the dye Trypan Blue. […] Dead cells, which have lost membrane integrity, take up the dye and are blue. Thus, the percentage of dead cells is the percentage of cells that are Trypan Blue positive out of the total cell population. Quantitative assessment of Trypan Blue uptake uses a cell counter from Fisher. Since the assay is instrument based, there is no observer bias in determining the percentage of Trypan Blue positive cells.
(§2) TRYPAN BLUE ASSAYS: Assays are performed on cells in 6 well plates: 300,000 cells are plated in each well of a 6-well plate in 3 ml of medium. After 24 hours, the DMSO vehicle or the indicated compound is added (in 1000th of the vol.) The cells incubated for an additional 24 hours, and then harvested in 0.25 ml of trypsin, followed after harvest by 0.75 ml of medium. The cells are spun down and resuspended in 100-200 μl of medium left that is over the cell pellet (resuspend cells by pipetting up and down a few times). Add 10 μl to 10 μl of trypan blue. Then 10 μl is inserted into the counting slide. After inserting the slide into the Fisher TC20 counting is automatic (these many cells are needed because an accurate ratio of Trypan Blue positive to Trypan Blue negative cells requires about 200 cells in the field the instrument counts).
In FIG. 28, neither the test compounds nor BHPI kill non-tumorigenic ERα Negative MCF-10A breast cells. ERα Negative MCF-10A cells were maintained for 24 hours in DMSO vehicle or 75 nM of BHPI or 75 nM of each of the indicated test compounds: 4, 6 and 105. Cell death was determined using the instrument-based Trypan Blue exclusion assay. (n=3±SEM).

[2] = test system: CaOV-3 ovarian cancer cells; experiment: Automated Trypan Blue exclusion cell death assay, Caov-3; type: cell-based, human; settings: 24 hours
Procedure: FIG. 33. 105, but not BHPI, kills therapy-resistant ovarian CaOV-3 ovarian cancer cells. (±)-105; Cell death assay: Automated Trypan Blue exclusion. (24 hours post (±)-105)
as §1
as §2, with “After inserting the slide into the Fisher TC20 counting is automatic (these many cells are needed because an accurate ratio of Trypan Blue positive to Trypan Blue negative cells requires about 200 cells in the field the instrument counts).” left out

[3] = test system: MCF-7; type: cell-based
Procedure: (§3) FIG. 36. Discovery of SERK-F6 (also known as, C(−)-105, (−)-105, (R)-105, (−)-1, or (R)-1), a compound that kills ERα-positive cancer cells, a, Chemical structures of BHPI and racemic compound 1 (i.e. (±)-1), and their cytotoxic activity on T47D breast cancer cells after 24-hour incubations with concentrations as indicated in nM. Cells were stained with annexin V-FITC and PI dyes prior to analysis via flow cytometry. […] Cells were incubated with SERK-F6 or positive control, Raptinal, for 24 hours and then stained with annexin V-FITC and PI dyes and analyzed via flow cytometry. Error bars represent S.E.M of 3 independent replicates. c, IC50 values of SERK-F6 after 24-hour incubation against a panel of cancer cell lines grouped by their reported ERα status. Cell viability was measured by Alamar blue fluorescence and set relative to a vehicle control and a quantitative dead control treated with Raptinal. Error bars represent S.E.M of 3 independent experiments. d, Crystal violet staining of T47D cells after 24-hour incubations with compounds and concentrations as indicated. Image is representative of 2 independent experiments. e,f, Long-term cell culture experiment with T47D, TDG, and TYS cells. Cells were incubated for 2 weeks with compounds (1 μM), followed by compound washout, and cells were cultured for 2 months. Cell number was determined by MTS. […]

[4] = test system: MDA-MB-231; type: cell-based
Procedure: as §3

[5] = test system: TYS-Luc cells; experiment: Long-term cell culture experiment (treat 2 weeks, regrow 4 weeks), MTS, TYS-Luc; type: cell-based, human
Procedure: To simulate the effect of several weeks of treatment of a tumor in a mouse xenograft, long-term cell culture experiments were performed. TYS-Luc cells (T47DERαY537S-Luc cells; ERαY537S is the most lethal ERα mutation seen in metastatic breast cancer) were plated at 4,000 cells/well in 96 well plates. […] After 2 weeks (medium change every 2 days) cell number was determined using MTS and a standard curve of absorbance versus cell number for TYS-Luc cells. Notes: (i) Bars denote the BHPI and (−)-105 arms of the experiment. No drug is present during regrow. […] This allows any surviving cells to regrow. After 4 weeks the cells were assayed using MTS. […] (Note: Visual inspection of the wells confirmed that there were no cells in the well treated for 2 weeks with active (−)-105.) To test whether the cells that regrew after BHPI treatment were resistant to BHPI they were re-treated for another cycle (BHPI Retreat) and shown to retain sensitivity to BHPI killing. (n=8 biological replicates ±SEM.

[6] = test system: MCF-7Y537S (MCF-7 ERαY537S-luciferase) cells; experiment: Long-term cell culture experiment, MCF-7 ERαY537S-luciferase; type: cell-based, human; settings: conditions as FIG. 15 (1 μM)
[7] = test system: partially BHPI-resistant T47D clones 1,3,8, and 11; experiment: MTS growth assay, partially BHPI-resistant T47D clones; type: cell-based, human; settings: 100 nM and 1 μM; 4 days
Procedure: ERα containing T47D human breast cancer cells able to survive in 1 μM BHPI were selected by clonal outgrowth. The effect of 100 nM and 1 μM BHPI and (−)-105 on growth of the (BHPI-sensitive) parental T47D cells and partially BHPI-resistant T47D clones 1,3,8, and 11 was evaluated. 4,000 cells/well were plated. Cell number was determined by MTS assay from a standard curve of absorbance versus cell number. […] Thus, in 4 days (−)-105 killed some, but not all, of the resistant cells.

[8] = test system: sp-XBP1 mRNA (unfolded protein response); experiment: Induction of spliced XBP-1 mRNA (qRT-PCR), T47D-luciferase cells; type: cell-based, human; settings: 100 nM
Procedure: ERα positive T47D-luciferase human breast cancer cells, were maintained for the indicated times in vehicle (Ctl, Control), 100 nM BHPI or 100 nM (−)-105. At the indicated times RNA was isolated and levels of sp-XBP1 mRNA quantitated by qRT-PCR. (n=3 ±SEM).

Structure (SMILES)	cell death of MCF-10A cells [1]	killing of Caov-3 cells [2]	cytotoxicity [3]	cytotoxicity [4]	regrowth of cells after drug removal ([5]; 1 μM for 2 weeks, then 4 weeks without drug)	TYS-Luc cells killed ([5]; 1 μM, 2 weeks treatment) [%]	eradication of cells in long-term experiment [6]	effect on growth / cell number [7]	UPR activation / induction of sp-XBP1 [8]
O=C1Nc2c(C(F)(F)F)cccc2C1(c1ccc(O)cc1)c1ccc(OC(F)(F)F)cc1 (racemic) [(±)-105, 3-(4-hydroxyphenyl)-3-(4-(trifluoromethoxy)phenyl)-7-(trifluoromethyl)indolin-2-one]	neither BHPI nor any of the test compounds induce significant death	kills							
O=C1Nc2c(C(F)(F)F)cccc2C1(c1ccc(O)cc1)c1ccc(OC(F)(F)F)cc1 (single isomer, unassigned; (-)) [(−)-105, 3-(4-hydroxyphenyl)-3-(4-(trifluoromethoxy)phenyl)-7-(trifluoromethyl)indolin-2-one]			cytotoxic	minimal effects	no regrowth	100	eradicates	completely blocked the growth of the resistant clones	much stronger UPR hyper-activator and inducer of sp-XBP1 than BHPI
